According to patent US20220339143A1, “TAK-925 FOR USE IN TREATING NARCOLEPSY” (Takeda Pharmaceutical Company Limited, priority 2019, published 2022):
Where two headings read alike, the source gives them in different places.

Experiment: Single dose PK in healthy subjects (Cohorts 1, 2, S1 and S2), plasma
Assay type: in vivo, human
Settings: human, plasma, intravenous
Description: This study investigates (i) the safety and tolerability of Compound A (methyl (2R,3S)-3-((methylsulfonyl)amino)-2-(((cis-4-phenylcyclohexyl)oxy)methyl)piperidine-1-carboxylate) when a single dose given as a 9 hour continuous IV infusion is administered to healthy adults, healthy elderly subjects and patients with narcolepsy type 1 (NT1); (ii) the pharmacokinetics of Compound A when a single dose given as a 9 hour continuous IV infusion is administered to healthy adults, healthy elderly subjects and patients with narcolepsy type 1; and (iii) the pharmacodynamics (PD) effects of Compound A, primarily by evaluation of the sleep latency on MWT when a single dose given as a 9 hour continuous IV infusion is administered to patients with narcolepsy type 1.
Pharmacokinetics: Concentrations of Compound A in plasma, and CSF, and pharmacokinetics parameters.
On average, the time to reach the plateau appeared to be approximately 3 to 4 hours after the start of infusion. […] After switching off the IV infusion, Compound A plasma concentrations declined rapidly and in a biphasic manner with a mean terminal disposition phase t1/2z ranging approximately from 3.4 to 5.1 hours across all doses. […] Table 5 provides a summary of plasma concentrations of Compound A after a single IV infusion in healthy subjects. Table 6 provides a summary of pharmacokinetic parameters of Compound A after a single IV infusion in healthy subjects.

[1] = 112 mg, read-out: Plasma concentration, Median
[2] = 112 mg, read-out: Plasma concentration, Minimum
[3] = 112 mg, read-out: Plasma concentration, Q1
[4] = 112 mg, read-out: Plasma concentration, Q3
[5] = 112 mg, read-out: Plasma concentration, Maximum
[6] = 112 mg, read-out: Plasma concentration, Mean
[7] = 134.4 mg, read-out: Plasma concentration, Maximum
[8] = 134.4 mg, read-out: Plasma concentration, Mean
[9] = 134.4 mg, read-out: Plasma concentration, Median
[10] = 134.4 mg, read-out: Plasma concentration, Minimum
[11] = 134.4 mg, read-out: Plasma concentration, Q1
[12] = 134.4 mg, read-out: Plasma concentration, Q3

SMILES: COC(=O)N1CCC[C@H](NS(C)(=O)=O)[C@@H]1CO[C@H]1CC[C@@H](c2ccccc2)CC1 [Compound A, methyl (2R,3S)-3-((methylsulfonyl)amino)-2-(((cis-4-phenylcyclohexyl)oxy)methyl)piperidine-1-carboxylate]
- concentration at 1.5 h [1]: 197 ng/mL
- concentration at 1.5 h [2]: 141 ng/mL
- concentration at 1.5 h [3]: 164 ng/mL
- concentration at 1.5 h [4]: 213 ng/mL
- concentration at 2 h [5]: 223 ng/mL
- concentration at 2 h [6]: 200 ng/mL
- concentration at 2 h [1]: 207 ng/mL
- concentration at 2 h [2]: 150 ng/mL
- concentration at 2 h [3]: 195 ng/mL
- concentration at 2 h [4]: 220 ng/mL
- concentration at 3 h [5]: 276 ng/mL
- concentration at 3 h [6]: 222 ng/mL
- concentration at 3 h [1]: 216 ng/mL
- concentration at 3 h [2]: 171 ng/mL
- concentration at 3 h [3]: 209 ng/mL
- concentration at 3 h [4]: 248 ng/mL
- concentration at 4 h [5]: 290 ng/mL
- concentration at 4 h [6]: 224 ng/mL
- concentration at 4 h [1]: 216 ng/mL
- concentration at 4 h [2]: 154 ng/mL
- concentration at 4 h [3]: 215 ng/mL
- concentration at 4 h [4]: 252 ng/mL
- concentration at 6 h [5]: 206 ng/mL
- concentration at 6 h [6]: 189 ng/mL
- concentration at 6 h [1]: 192 ng/mL
- concentration at 6 h [2]: 154 ng/mL
- concentration at 6 h [3]: 186 ng/mL
- concentration at 6 h [4]: 205 ng/mL
- concentration at 8 h [5]: 221 ng/mL
- concentration at 8 h [6]: 194 ng/mL
- concentration at 8 h [1]: 195 ng/mL
- concentration at 8 h [2]: 162 ng/mL
- concentration at 8 h [3]: 176 ng/mL
- concentration at 8 h [4]: 216 ng/mL
- concentration at 9 h [5]: 247 ng/mL
- concentration at 9 h [6]: 216 ng/mL
- concentration at 9 h [1]: 221 ng/mL
- concentration at 9 h [2]: 169 ng/mL
- concentration at 9 h [3]: 192 ng/mL
- concentration at 9 h [4]: 245 ng/mL
- concentration at 0.5 h [7]: 201 ng/mL
- concentration at 0.5 h [8]: 162 ng/mL
- concentration at 0.5 h [9]: 152 ng/mL
- concentration at 0.5 h [10]: 147 ng/mL
- concentration at 0.5 h [11]: 148 ng/mL
- concentration at 0.5 h [12]: 169 ng/mL
- concentration at 1 h [7]: 273 ng/mL
- concentration at 1 h [8]: 204 ng/mL
- concentration at 1 h [9]: 187 ng/mL
- concentration at 1 h [10]: 181 ng/mL
- concentration at 1 h [11]: 181 ng/mL
- concentration at 1 h [12]: 216 ng/mL
- concentration at 1.5 h [7]: 289 ng/mL
- concentration at 1.5 h [8]: 228 ng/mL
- concentration at 1.5 h [9]: 221 ng/mL
- concentration at 1.5 h [10]: 191 ng/mL
- concentration at 1.5 h [11]: 197 ng/mL
- concentration at 1.5 h [12]: 250 ng/mL
- concentration at 2 h [7]: 335 ng/mL
- concentration at 2 h [8]: 248 ng/mL
- concentration at 2 h [9]: 244 ng/mL
- concentration at 2 h [10]: 192 ng/mL
- concentration at 2 h [11]: 199 ng/mL
- concentration at 2 h [12]: 276 ng/mL
- concentration at 3 h [7]: 388 ng/mL
- concentration at 3 h [8]: 288 ng/mL
- concentration at 3 h [9]: 278 ng/mL
- concentration at 3 h [10]: 217 ng/mL
- concentration at 3 h [11]: 260 ng/mL
- concentration at 3 h [12]: 305 ng/mL
- concentration at 4 h [7]: 355 ng/mL
- concentration at 4 h [8]: 294 ng/mL
- concentration at 4 h [9]: 308 ng/mL
- concentration at 4 h [10]: 214 ng/mL
- concentration at 4 h [11]: 256 ng/mL
- concentration at 4 h [12]: 324 ng/mL
- concentration at 6 h [7]: 302 ng/mL
- concentration at 6 h [8]: 248 ng/mL
- concentration at 6 h [9]: 260 ng/mL
- concentration at 6 h [10]: 164 ng/mL
- concentration at 6 h [11]: 206 ng/mL
- concentration at 6 h [12]: 295 ng/mL
- concentration at 8 h [7]: 313 ng/mL
- concentration at 8 h [8]: 262 ng/mL
- concentration at 8 h [9]: 262 ng/mL
- concentration at 8 h [10]: 199 ng/mL
- concentration at 8 h [11]: 242 ng/mL
- concentration at 8 h [12]: 291 ng/mL
- concentration at 9 h [7]: 330 ng/mL
- concentration at 9 h [8]: 292 ng/mL
- concentration at 9 h [9]: 300 ng/mL
- concentration at 9 h [10]: 241 ng/mL
- concentration at 9 h [11]: 268 ng/mL
- concentration at 9 h [12]: 311 ng/mL
- concentration at 0.5 h (180 mg, read-out: Plasma concentration, Maximum): 224 ng/mL
- concentration at 0.5 h (180 mg, read-out: Plasma concentration, Mean): 180 ng/mL
- concentration at 0.5 hr (180 mg, read-out: Plasma concentration, Median): 170 ng/mL
- concentration at 0.5 hr (180 mg, read-out: Plasma concentration, Minimum): 161 ng/mL
- concentration at 0.5 hr (180 mg, read-out: Plasma concentration, Q1): 163 ng/mL
- concentration at 0.5 hr (180 mg, read-out: Plasma concentration, Q3): 194 ng/mL
